According to paper PMC6400584, “Activation mechanism of ATP-sensitive K^+ channels explored with real-time nucleotide binding” (eLife, 2019):
Like-named read-outs stand apart in the source and are kept apart here.

Key:
SUR1/Kir6.2 = target: T1, SUR1/Kir6.2 (Homo sapiens, UniProt Q09428+Q14654); parameters: method as in Proks et al., 2010; settings: 100 μM in Mg2+-free solutions; wild-type; ref Proks et al., 2010; cited from earlier work
T1 construct: expressed in transfected cells; host or cells: HEK-293T

SUR1-T1397*/Kir6.2 [1] = assay: Current inhibition in inside-out patches in the absence of Mg2+; format: biochemical, Homo sapiens
Method: (§1) Currents were recorded from inside-out membrane patches excised from transfected HEK-293T cells. Pipettes were pulled to a resistance of 1–5 MΩ and filled with an extracellular solution containing (in mM) 140 KCl, 1.2 MgCl2, 2.6 CaCl2, and 10 HEPES, pH 7.4 or 140 KCl, 1 EGTA, 10 HEPES, pH 7.3. The intracellular (bath) solutions contained either (in mM) 107 KCl, 2 MgCl2, 1 CaCl2, 10 EGTA, and 10 HEPES, pH 7.2 for experiments showing nucleotide-dependent activation or 140 KCl, 1 EDTA, 1 EGTA, 10 HEPES pH 7.3 for experiments showing nucleotide-dependent inhibition. Nucleotides were added as indicated. Patches were perfused with an 8-channel µFlow perfusion system. Data were acquired at a holding potential of −60 mV using an Axopatch 200B amplifier and Digidata 1322A digitizer with pClamp 9.0 software (Molecular Devices). Currents were digitized at 10 kHz and low-pass filtered at 1 kHz. KATP channels run down in excised patches (reviewed by Proks et al.) ([Proks et al., 2016]). For inhibitory concentration-response relationships, rundown was corrected by alternating test nucleotide solutions with nucleotide-free (control) solutions and expressing the test currents as a fraction of the average of the control currents before and after the test solution. […]

SUR1-Y1353*/Kir6.2 = assay: Nucleotide wash-out (dissociation) time course; format: binding, Homo sapiens; settings: for t0.5 (time to 50% dissociation): no drug, mean ± SD of individual fits; for reduction of off-rate in the presence of Mg2+ (fold / factor): with vs without Mg2+; for τ of MgTNP-ADP dissociation in the presence of drug / τ of MgTNP-ATP dissociation in the presence of drug: 500 µM tolbutamide or 340 µM diazoxide
[2] = target: SUR1-Y1353*/Kir6.2 (NBS2 of SUR1) (Homo sapiens, UniProt Q09428, Y1353X); assay: FRET binding of TNP-nucleotides to ANAP-labeled KATP in unroofed membrane fragments
Method: (§2) Unroofed membranes were prepared using a modification of a protocol from the Heuser laboratory ([Heuser, 2000]; [Usukura et al., 2012]; [Zagotta et al., 2016]). Briefly, a coverslip containing adherent cells was removed from the cell culture medium and a small piece (0.5–1 cm) was broken off using jewelers forceps (#5) and washed in phosphate buffered saline (PBS, Thermo Fisher Scientific) diluted 1:3 in deionized water. Cells were exposed 3 × 10 s to a solution of 0.01% poly-L-lysine (Sigma) with intervening washes in diluted PBS to adhere them more firmly to the coverslips. The coverslip fragment was then placed in a 30 mm culture dish filled with 2–3 mL of 1/3X PBS and sonicated very briefly (~100 ms) using a probe sonicator (Vibra-cell; Newtown, CT), leaving behind adherent plasma membrane and sometimes additional cellular material. The unroofed fragments in our experiments were sometimes visible under bright-field illumination, a potential result of our modified ‘unroofing’ procedure. Morphologically, such cell fragments resemble the ‘partially unroofed’ cells identified by Usukura et al. ([Usukura et al., 2012]) Cells cultured on poly-D-lysine coated FluoroDishes were unroofed in diluted PBS with no additional poly-L-lysine treatment. This procedure yielded a higher percentage of completely unroofed plasma membranes (i.e. nearly invisible with brightfield illumination).
(§3) Unroofed membrane fragments were imaged directly on FluoroDishes (FD35-PDL-100, World Precision Instruments) or on broken coverslips placed in a FluoroDish (FD3510, World Precision instruments) using a Nikon TE2000-U microscope equipped with a 40x (S Fluor, 1.3 NA; Nikon, Kingston Upon Thames, UK) or 100x (Apo TIRF, 1.49 NA, Nikon) oil-immersion objective and low-fluorescence immersion oil (MOIL-30, Olympus; Southend-on-Sea, UK) or a 60x water immersion objective (Plan Apo VC, 1.20 NA, Nikon). ANAP was excited using a ThorLabs LED source (LED4D067) at 385 nm connected to the microscope using a liquid light guide in series with a 390/18 nm band-pass filter (MF390-18, ThorLabs; Newton, NJ) and MD416 dichroic (ThorLabs). For imaging, emitted light was filtered through a 479/40 nm band-pass filter (MF479-40, ThorLabs). GFP-tagged constructs were imaged using a similar setup with excitation at 490 nm, a 480/40 band-pass excitation filter (Chroma; Bellows Falls, VT), a DM505 dichroic mirror (Chroma), and 510 nm long-pass emission filter (Chroma). All images were acquired using a PIXIS 400B CCD camera (Princeton Instruments; Trenton, NJ). For spectroscopy, ANAP was excited as above, but emitted light was passed through a 400 nm long-pass filter (FEL0400, ThorLabs) and directed through the slit of an Isoplane 160 spectrometer (300 g/mm grating; Princeton Instruments) in series with the camera. The acquired images retained spatial information in the y-dimension, with the x-dimension replaced by wavelength (Figure 1—figure supplement 1a). Exposure times were typically 100 ms for brightfield images, 1–10 s for steady-state spectra and 1–5 s for time-course experiments.
(§4) To prevent accumulation of fluorescent nucleotides in the bath, FluoroDishes were perfused with either (in mM) 140 KCl, 20 NaCl, 10 MgCl2, 10 HEPES pH 7.2 with NaOH or 140 KCl, 20 NaCl, 1 EDTA, 10 HEPES pH 7.2 with NaOH using a peristaltic pump (Ismatec; Wertheim, Germany). Unroofed membranes were directly perfused with nucleotides using an 8-channel µFlow perfusion system (ALA Scientific Instruments; Farmingdale, NY). Solution change with the µFlow was rapid (τ = 0.73 s±0.02 s, n=5) as measured from single exponential fits to wash-out of 50 µM tetramethylrhodamine-5-maleimide (TMRM) after switching to a solution with no TMRM. TMRM was excited with a 565 nm LED with a D540/25X band-pass filter (Chroma) and DM565 dichroic mirror (Chroma). Emitted light was collected through a D605/55M band-pass filter (Chroma). […]

SUR1-T1397*/Kir6.2 [3] = target: T2, SUR1-T1397*/Kir6.2 (Homo sapiens, UniProt Q09428, T1397X); assay: as above; settings: absence of Mg2+
T2 construct: confirmed that >95% of SUR1-T1397* was full length; expressed in transfected cells; host or cells: HEK-293T
Method: as §2, §3, §4

SUR1-Y1353*,K2A/Kir6.2 [4] = target: T3, SUR1-Y1353*,K2A/Kir6.2 (Homo sapiens, UniProt Q09428, K1384A/Y1353X); assay: as above; settings: absence of Mg2+
T3 construct: the signals we measured (fluorescence) were derived solely from full-length (i.e. ANAP-labeled) channels; expressed in transfected cells; host or cells: HEK-293T
Method: as §2, §3, §4

SUR1/Kir6.2-G334D = target: T4, SUR1/Kir6.2-G334D (Homo sapiens, UniProt Q09428); assay: Current activation in inside-out patches; format: biochemical
T4 construct: expressed in transfected cells; host or cells: HEK-293T
Method: as §1

SUR1-Y1353*,K2A/Kir6.2 [5] = target: T3, SUR1-Y1353*,K2A/Kir6.2; assay: Nucleotide wash-out (dissociation) time course; format: binding; settings: absence of Mg2+
Excerpt: as §4, with “[…] Solution exchange” for “Emitted light”, “also monitored during experiments with TNP-nucleotides by examining the emission spectrum of” for “collected through”, “background region in each image.” for “D605/55M band-pass filter (Chroma).”
To measure the time course of nucleotide unbinding, the fluorescence at the TNP-nucleotide peak (usually around 560 nm) was plotted as a function of time after exchanging to a zero-nucleotide solution, as following the time course of the rise in ANAP fluorescence was complicated by photobleaching. After complete wash out of nucleotides, the fluorescence at 560 nm was non-zero, as the shoulder of the ANAP emission spectrum extends into the range of wavelengths at which TNP-nucleotides emit. […]

[6] = absence of Mg2+, fit to combined data
[7] = absence of Mg2+ (1 mM EDTA), mean ± SEM of fits to individual experiments
[8] = mean ± SEM of fits to individual experiments

Compound | t0.5 (time to 50% dissociation) (SUR1-Y1353*/Kir6.2; absence of Mg2+) | reduction of off-rate in the presence of Mg2+ (fold / factor) (SUR1-Y1353*/Kir6.2) | Emax [2, 7] | h [2, 7] | Emax [2, 6] | h [2, 6] | EC50 (SUR1-T1397*/Kir6.2 [3]; fit to combined data) | Emax (SUR1-T1397*/Kir6.2 [3]; fit to combined data) | h (SUR1-T1397*/Kir6.2 [3]; fit to combined data) | EC50 (SUR1-T1397*/Kir6.2 [3]; [8]) | Emax (SUR1-T1397*/Kir6.2 [3]; [8]) | h (SUR1-T1397*/Kir6.2 [3]; [8]) | Emax (SUR1-Y1353*,K2A/Kir6.2 [4]; fit to combined data) | h (SUR1-Y1353*,K2A/Kir6.2 [4]; fit to combined data) | Emax (SUR1-Y1353*,K2A/Kir6.2 [4]; [8]) | h (SUR1-Y1353*,K2A/Kir6.2 [4]; [8]) | τ of MgTNP-ADP dissociation in the presence of drug (SUR1-Y1353*/Kir6.2; fit to combined data) | τ of MgTNP-ATP dissociation in the presence of drug (SUR1-Y1353*/Kir6.2; fit to combined data) | also measured
Nc1ncnc2c1ncn2[C@@H]1O[C@H](COP(=O)(O)OP(=O)(O)O)[C@@H](O)[C@H]1O [ADP] |  |  |  |  |  |  |  |  |  |  |  |  |  |  |  |  |  |  | reduction in current (SUR1/Kir6.2): ~ 60%
Nc1ncnc2c1ncn2[C@@H]1O[C@H](COP(=O)(O)OP(=O)(O)OP(=O)(O)O)[C@@H](O)[C@H]1O [ATP] |  |  |  |  |  |  |  |  |  |  |  |  |  |  |  |  |  |  | IC50 (SUR1-T1397*/Kir6.2 [1]; Equation 4 fit to combined data): 49.2 µM; IC50 (SUR1-T1397*/Kir6.2 [1]; mean ± SEM of fits of Equation 4 to individual experiments): 53.9 ± 9.4 µM
Nc1ncnc2c1ncn2[C@@H]1O[C@H](COP(=O)(O)OP(=O)(O)OP(=O)(O)O)[C@H]2OC3(O[C@H]21)C([N+](=O)[O-])=CC(=[N+]([O-])[O-])C=C3[N+](=O)[O-] (stereo partly drawn) [TNP-ATP, trinitrophenyl-ATP] | 4.8 ± 1.5 s | 2.2 | 0.83 ± 0.03 | 0.88 ± 0.06 | 0.84 ± 0.04 | 0.8 ± 0.1 | 4.8 µM | 0.94 ± 0.02 | 0.8 ± 0.1 | 4.7 ± 0.8 µM | 0.94 ± 0.01 | 0.83 ± 0.09 | 0.87 ± 0.03 | 0.9 ± 0.2 | 0.90 ± 0.03 | 0.98 ± 0.13 |  |  | A1 of dissociation (bi-exponential amplitude) (SUR1-Y1353*/Kir6.2; [6]): 0.65 ± 0.06; A2 of dissociation (bi-exponential amplitude) (SUR1-Y1353*/Kir6.2; [6]): 0.35 ± 0.06; τ1 of dissociation (bi-exponential) (SUR1-Y1353*/Kir6.2; [6]): 4.5 s; τ2 of dissociation (bi-exponential) (SUR1-Y1353*/Kir6.2; [6]): 28.2 s; EC50 ([2]; EC50, absence of Mg2+ (1 mM EDTA), mean ± SEM of fits to individual experiments): 12.8 ± 5.6 µM; EC50 ([2]; EC50, absence of Mg2+, fit to combined data): 8.5 µM
CC1=NS(=O)(=O)c2cc(Cl)ccc2N1 [diazoxide] |  |  |  |  |  |  |  |  |  |  |  |  |  |  |  |  | 52.6 s | 60.5 s | 
CCCCNC(=O)NS(=O)(=O)c1ccc(C)cc1 [tolbutamide] |  |  |  |  |  |  |  |  |  |  |  |  |  |  |  |  | 6.4 s | 6.3 s | effect on currents (SUR1/Kir6.2-G334D): inhibited
trinitrophenyl-ADP [TNP-ADP] | 2.9 ± 0.5 s | ~ 5 | 0.95 ± 0.01 | 0.79 ± 0.04 | 0.95 ± 0.02 | 0.8 ± 0.1 | 5.6 µM | 0.98 ± 0.05 | 0.7 ± 0.1 | 6.3 ± 2.3 µM | 0.98 ± 0.02 | 0.84 ± 0.13 | 0.91 ± 0.02 | 0.9 ± 0.1 | 0.92 ± 0.02 | 0.88 ± 0.05 |  |  | τ of dissociation (single exponential) (SUR1-Y1353*/Kir6.2; [6]): 4.2 s; τ of dissociation (single exponential) (SUR1-Y1353*,K2A/Kir6.2 [5]; fit to combined data): 5.4 s; t0.5 (time to 50% dissociation) (SUR1-Y1353*,K2A/Kir6.2 [5]; mean ± SD): 3.8 ± 1.0 s; EC50 ([2]; absence of Mg2+ (1 mM EDTA), mean ± SEM of fits to individual experiments, read-out: EC50): 6.8 ± 1.3 µM; EC50 ([2]; absence of Mg2+, fit to combined data, read-out: EC50): 6.1 µM; effect of increasing concentration to 10 mM on amount of quenching ([2]; absence of Mg2+, n = 3, data not shown): did not significantly change; EC50 (SUR1-Y1353*,K2A/Kir6.2 [4]; fit to combined data): 4.4 µM; EC50 (SUR1-Y1353*,K2A/Kir6.2 [4]; [8]): 5 ± 1 µM
